According to article PMC7603451, “A novel human pluripotent stem cell-based assay to predict developmental toxicity” (Archives of Toxicology, 2020):
Where two headings read alike, the source gives them in different places. Each block holds one molecule with its values, some of them ahead of it.

Columns and labels:
[1] = system: BIONi010-C hiPSC embryoid bodies differentiating into cardiomyocytes; experiment: PluriBeat assay, beat score of EBs, BIONi010-C
Description: (§1) Cardiac differentiation was performed as published (Fischer et al. [2018]) with slight modifications. Briefly, hiPSC were harvested from culture dishes with good colony morphology (day 5–6 after split) by removing medium and adding Gibco™ TrypLE™ Select (Thermo Fisher Scientific) for 1–2 min. As soon as single cells appeared at the borders of the colonies, TrypLE was removed by suction and the cells harvested as single cells in mTeSR-ROCK (mTeSR1 with 10 µM Y27632 dihydrochloride). Cells were counted and 5 × 10^4 cells/ml were seeded at 100 µl per well into a 96-well Polystyrene Conical Bottom MicroWell™ Plate (249,952, Thermo Fisher Scientific). The plates were centrifuged at 500g for 5 min at room temperature. After 20 h of incubation, EBs had formed (one EB per well) and cardiac differentiation was induced by exchanging 80 µl medium to D0 medium. All medium recipes are included in supplementary Table 1. After 24 ± 2 h, 80 µl medium was exchanged to TS medium. After 24 ± 2 h, 80 µl medium were exchanged to Wnt medium. After 24 ± 2 h, 80 µl medium was exchanged with TS medium. Three days later (72 ± 2 h), 60 µl medium was exchanged with 80 µl fresh TS medium added per well. The following day beating of the cardiomyocyte containing EBs was scored.
(§2) Test compounds were added to the specific daily differentiation medium before medium exchange on the 96-well plates. Vehicle was kept constant across the plates at 0.1%. Thirty-two EBs were exposed to each concentration in each experiment. On the last day of the assay, the beat score was determined as follows: Each EB was observed until contraction was seen, though for a maximum of 10 s. If no movement was seen, the beat score 0 was given. If the entire area of the sphere contracted, a beat score of 2 was given. Everything in between was given a score of 1.
(§3) The beat score for each condition was determined as the average beat score of the 32 EBs. All experiments were performed in biological triplicates if not stated otherwise. For gene expression analysis and compound testing, data from 32 EBs (= 32 wells each containing one EB) were analyzed for a given concentration or time point.
(§4) IC25 values were defined as absolute IC25 values giving the concentration that inhibits the beat score by 25%. […] Calculations were based on the beat score of > 90 EBs from three independent experiments per cell line.
(§5) The following analysis was performed in the statistical program R-studio: To analyze the impact of the test compounds on the beat score, we performed an ordinal logistic regression using the polr package in R with beat score and concentration as factors on n ≥ 90 EBs from three biological replicates. The LOEC was defined as the lowest observable effect concentration of test compound causing an effect with a p value < 0.05.

[2] = system: BIONi010-C hiPSC grown in monolayer; experiment: Cytotoxicity, CellTiter-Glo 2.0 ATP-based cell viability assay; parameters: species or system human; details: for concentration showing cytotoxicity: human, 48 h
Description: Before initiating tests on cardiomyocyte differentiation for test chemicals, cell viability was determined to ascertain that any further testing was done at non-cytotoxic concentrations. On the day of the experiment, 50 µl/well hESC-Qualified Matrigel (354,277, Corning) was added to flat-bottom 96-well plates (Corning) and incubated at 37 °C and 95% humidity until use. BIONi010-C hiPSC were harvested from a […] by Gibco™ TrypLE™ Select (Thermo Fisher Scientific) and a single-cell suspension was prepared in mTeSR™1 serum-free medium (STEMCELL Technologies). Matrigel was removed from plates and a final concentration of 1 × 10^4 cells/well was added. After 24 h, mTESR1 medium was exchanged for fresh medium. Cell were exposed to the test chemicals after another 24 h and for 48 h in total with a vehicle kept constant across the plates at 0.1%. […] Assay reagent (100 µl/well) was added, plates were left on a shaker table for 2 min and successively for 10 min at room temperature. Lysates were transferred to white plates and luminescence was measured (EnSpire, Perkin Elmer).

BIONi010-C EBs = experiment: EB volume after exposure, BIONi010-C; format: cell-based, human
Description: (§6) The average of 32 EBs per condition was analyzed. […] EB size was analysed using a one-way ANOVA without matching and multiple comparisons with Dunnett’s correction.

[3] = system: IMR90-4 hiPSC embryoid bodies differentiating into cardiomyocytes; experiment: PluriBeat assay, beat score of EBs, IMR90-4; details: for effect on beat score: up to maximum concentration tested
Description: as §1, §2, §3, §4, §5

IMR90-4 EBs = experiment: EB volume after exposure, IMR90-4; format: cell-based, human; details: for concentration with effect on EB volume: IMR90-4, last day of assay
Description: as §6

IMR90-1 EBs = experiment: EB volume after exposure, IMR90-1; format: cell-based, human; details: for concentration with effect on EB volume: IMR90-1, last day of assay
Description: as §6

[4] = system: IMR90-1 hiPSC embryoid bodies differentiating into cardiomyocytes; experiment: PluriBeat assay, beat score of EBs, IMR90-1
Description: as §1, §2, §3, §4, §5

mouse ESCs = details: cited from earlier work
[5] = system: EBs made from the three cell lines BIONi010-C, IMR90-1, and IMR90-4; experiment: PluriBeat assay, statements without a named cell line
Description: as §2
For analysis of the EB size, the EBs were imaged with a light microscope after assessing the beat score. The plates were left at room temperature to decrease the beat rate before imaging, thereby decreasing the risk of false small outliers due to contractions. The images were further analyzed with ImageJ, where the diameter of the individual EBs was measured manually. From this, the volume of each EB was calculated and the average of the controls on each plate set to 100% to calculate the volume (%) for the exposed EBs. The average of 32 EBs per condition was analyzed.

hiPSC = details: cited from earlier work
hESCs = system: hESCs; parameters: method as in Kameoka et al. [2014]; details: hESC monolayer, 3 days; ref Kameoka et al. [2014]; cited from earlier work
[6] = cited from earlier work
rat embryos = system: rat embryos; parameters: method as in Rettie et al. [1986]; details: ex vivo rat embryos, gestation day 10; ref Rettie et al. [1986]; cited from earlier work
[7] = system: in vitro assays for developmental toxicity; details: previous in vitro developmental toxicity studies, cited from earlier work
[8] = IMR90-4, beat score on last day of assay, lowest concentration with p < 0.05
[9] = human, 8 days (beat score read on the last day of the assay)

Structure (SMILES): Fc1ccc([C@]2(Cn3cncn3)O[C@H]2c2ccccc2Cl)cc1 (racemic) [Epoxiconazole, epoxiconazole]
LOEC ([1]; BIONi010-C, beat score on last day of assay, lowest concentration with p < 0.05): 5 µM
concentration showing cytotoxicity [2]: ≥ 50 µM
effect on EB volume (BIONi010-C EBs): significantly smaller spheres
LOEC [3, 8]: 1.3 µM
concentration at which EBs stopped beating ([3]; human, 7 days): 2.5 µM
effect on EB volume (IMR90-4 EBs): significantly smaller spheres
effect on EB volume (IMR90-1 EBs): non-significant trend
LOEC ([4]; IMR90-1, beat score on last day of assay, lowest concentration with p < 0.05): 1.3 µM
concentration at which EBs stopped beating ([4]; human, 7 days): 2.5 µM
embryotoxicity in the mEST (mouse ESCs): weakly embryotoxic
IC50 (mouse ESCs; mEST based on mouse ESCs, ref Dreisig et al. [2013]): 34 µM
lowest concentration decreasing the beating (LOEC) ([5]; beat score, cell line not stated): 1.3 µM
proportion of beating cardiac EBs [5, 9]: ~0%

concentration with significant decrease in EB volume (BIONi010-C EBs; BIONi010-C, last day of assay): ≥ 2.3 µM
effect on beat score ([3]; IMR90-4): non-significant trend
IC25 (absolute inhibition concentration of 25%) with 95% confidence intervals ([3]; human, 7 days): > 36 µM
concentration with effect on EB volume (IMR90-4 EBs): ≥ 18 µM
concentration with effect on EB volume (IMR90-1 EBs): ≥ 2.3 µM
decrease of EB volume ([5]; human, 7 days, 2.3 µM): ~60%
Structure (SMILES): O=C1CCC(N2C(=O)c3ccccc3C2=O)C(=O)N1 (stereo not shown) [Thalidomide, thalidomide]
LOEC ([1]; human, 7 days): 2.3 µM
effect on viability ([2]; BIONi010-C monolayer, 48 h exposure, 25, 50, 100 and 200 µM): did not reduce viability in any of the concentrations tested
concentration showing cytotoxicity [2]: > 200 µM
IC50 (hiPSC; original EST protocol, ref Aikawa et al. [2014]): 450 µM
IC50 (hiPSC; ref Aikawa [2020]): 5.5 µM
IC50 (hESCs): 0.5 µM
LOEC [3, 8]: no LOEC could be determined
LOEC ([3]; human, 7 days): > 36 µM
LOEC ([4]; human, 7 days): 2.3 µM
lowest concentration decreasing the beating (LOEC) [5, 9]: 2.3 µM
clinical plasma concentrations for therapeutic use ([6]; human, ref Chung et al. [2004], Kodama et al. [2009]): 1 to 6 µM
internal exposure ([6]; regular dose for pregnant women of 200 mg, ref Teo et al. [2004]): 4.7 µM

IC25 (absolute inhibition concentration of 25%) with 95% confidence intervals ([1]; human, 7 days): > 300 µM
effect on EB volume (BIONi010-C EBs; BIONi010-C, last day of assay): did not lead to apparent effects
IC25 (absolute inhibition concentration of 25%) with 95% confidence intervals ([3]; human, 7 days): > 300 µM
concentration with effect on EB volume (IMR90-4 EBs): 300 µM
concentration with effect on EB volume (IMR90-1 EBs): 200 µM
IC25 (absolute inhibition concentration of 25%) with 95% confidence intervals ([4]; human, 7 days): > 300 µM
Structure (SMILES): CCCC(CCC)C(=O)O [Valproic acid, valproic acid]
effect on beat score ([1]; BIONi010-C, up to maximum concentration tested): did not lead to a significant decrease in beat score
LOEC ([1]; human, 7 days): > 300 µM
reduction of viability ([2]; BIONi010-C monolayer, 48 h exposure, 400 µM): more than 20%
concentration showing cytotoxicity [2]: above 300 µM
effect on beat score ([3]; IMR90-4): did not lead to a significant decrease in beat score
LOEC ([3]; human, 7 days): > 300 µM
concentration with toxic effects (rat embryos): 800 µM
IC50 ([7]; ref Aikawa et al. [2014], Shinde et al. [2016]): 868 to 1000 µM
IC50 ([7]; ref Uibel et al. [2010], Palmer et al. [2013], Kameoka et al. [2014], Aikawa [2020]): 3 to 205 µM
effect on beat score ([4]; IMR90-1, up to maximum concentration tested): did not lead to a significant decrease in beat score
LOEC ([4]; human, 7 days): > 300 µM
therapeutic serum levels ([6]; human, ref Dasgupta [2016]): around 700 µM
